From patent publication US6054282A, “Method for detecting biological interactions especially in receptor binding assays” (Zeneca Limited, priority 1993, dated 2000)

Tested on: human calcitonin receptor
Test: Calcitonin receptor radial partition binding assay, displacement of (3-[125I]iodotyrosyl-22) salmon calcitonin
Settings: 1 micromolar salmon calcitonin; MEL cell membranes with cloned human calcitonin receptor; room temperature, 40 minutes; FIG. 3
Procedure: The lysate was transferred to a glass/Teflon homogeniser and given 10 strokes to ensure cell disruption. The homogenate was centrifuged at 3,000 rpm (1100 g) for 10 minutes at 4 deg.C. […] The low-speed supernatant was removed, and the pellet re-suspended in 10 ml of homogenisation buffer and dispersed with 3×10 second treatments with the Polytron homogeniser, followed by low-speed centifugation as described above. The supernatants from both spins were combined. This was then centrifuged for 30 minutes at 33,000 rpm (100,000 g) at 4 deg C. in an L7 Ultracentrifuge (Beckman) using a Ti75 head. The pellet was re-suspended in 20 mM HEPES, pH 7.4, and re-centrifuged. This pellet was then re-suspended as before and treated with 10 strokes of the glass/Teflon homogeniser.
Protein determination was by the […] method of the Pierce Chemical Co., using their recommended protocol and bovine serum albumin (BSA) as a standard. Membranes were diluted to a stock concentration of 0.08 mg/ml protein, and stored at -70 deg. C.
To a 30×43 cm glass fibre filter mat (Tomtec RG) was added 4 microlitres of receptor preparation to 2,304 positions in a rectangular array. This was allowed to dry for 2 hours at room temperature. […]
The mat was allowed to dry completely and was exposed to a storage phosphor screen (Molecular Dynamics) for 3 hours and analysed using a PhosphorImager SF (Molecular Dynamics).

inhibition of binding of [125I] salmon calcitonin (central spot, PhosphorImager): full inhibition of binding
Substance: calcitonin [salmon calcitonin]
